# Where a name gives a salt, the structure may show the parent alone.
# Assays:
# [1] = tested on: cellular ROCK activity (cofilin phosphorylation at Ser3) in A7r5 rat smooth muscle cells; test: Cellular ROCK activity: cofilin (Ser3) phosphorylation, In-Cell Western assay; assay type: cell-based; settings: Rattus norvegicus, A7R5, 1 h, 1 hour compound incubation, phospho-cofilin (Ser3), read-out: CELL_IC50
# Experimental: The potency of Rho-associated protein kinase (ROCK) inhibitors was quantified by measuring cofilin phosphorylation levels at Serine 3 (Ser3) as a measure of cellular ROCK activity by In-Cell Western assay. […] The assay plate was imaged and quantified on the Odyssey imager (LICOR Biosciences).
# ROCK inhibitor compound plate preparation. […] Stock compounds and control are added directly to ECHO plate (Labcyte) by Janus.
# A7r5 cell culture and plating. A7r5 cells were cultured according to standard cell culture protocols in A7r5 growth media (DMEM with Glutamax and 10% FBS). […] 45 μl of re-suspended A7r5 cells were plated at 3000 cells/well in a sterile, μclear, black, F-bottom, 384-well microplate (Greiner bio-one). Seeded cells allowed to settle in wells on the bench for 1 hour before incubation at 37° C., 5% CO2 overnight.
# Assay reagent and antibody preparations. Wash buffer was prepared by addition of Tween-20 to Dulbecco's Phosphate Buffered Saline (DPBS) (1×) without calcium and magnesium to make 1% Tween-20 as final concentration. Blocking buffer was prepared by addition of TritonX-100 to SeaBlock buffer (ThermoFisher) to make 0.3% TritonX-100 as final concentration. […] Secondary antibody mix was prepared by diluting donkey anti-rabbit 800CW antibody (LICOR Biosciences) 1:1000 in SeaBlock buffer.
# Assay procedure. Compound plate was diluted by addition of 19 μl/well compound dilution buffer (DMEM with Glutamax) using 125 μl 16-channel Matrix electronic pipette. 5 μl diluted compound was stamped from compound plate to assay plate containing A7r5 cells using Bravo (384-well head from Agilent) liquid handler and incubated at 37° C., 5% CO2 for 1 hour. Cells were fixed by addition of 5 μl 37% formaldehyde using 125 μl 16-channel Matrix electronic pipette and incubation for 20 min at room temperature. The assay plate was washed 5× with 60 μl/well wash buffer. […] Next, the assay plate was sealed, centrifuged at 1000 rpm for 5 seconds and incubated at 4° C. overnight on an orbital shaker at 300 rpm. […] The assay plate was centrifuged at 1000 rpm for 5 seconds and incubated on an orbital shaker at 300 rpm for 60 min at room temperature. Finally, assay plate was washed and wells left empty before measurement of 700 nm and 800 nm fluorescence intensities on Odyssey imager set at 4.0 mm focus offset.
# [2] = molecular target: human catalytic domain ROCK II protein (amino acids 5-554) with a N-terminal GST tag (Homo sapiens, UniProt O75116); test: biochemical
# Sequence of human catalytic domain ROCK II protein (amino acids 5-554) with a N-terminal GST tag (O75116 5-554): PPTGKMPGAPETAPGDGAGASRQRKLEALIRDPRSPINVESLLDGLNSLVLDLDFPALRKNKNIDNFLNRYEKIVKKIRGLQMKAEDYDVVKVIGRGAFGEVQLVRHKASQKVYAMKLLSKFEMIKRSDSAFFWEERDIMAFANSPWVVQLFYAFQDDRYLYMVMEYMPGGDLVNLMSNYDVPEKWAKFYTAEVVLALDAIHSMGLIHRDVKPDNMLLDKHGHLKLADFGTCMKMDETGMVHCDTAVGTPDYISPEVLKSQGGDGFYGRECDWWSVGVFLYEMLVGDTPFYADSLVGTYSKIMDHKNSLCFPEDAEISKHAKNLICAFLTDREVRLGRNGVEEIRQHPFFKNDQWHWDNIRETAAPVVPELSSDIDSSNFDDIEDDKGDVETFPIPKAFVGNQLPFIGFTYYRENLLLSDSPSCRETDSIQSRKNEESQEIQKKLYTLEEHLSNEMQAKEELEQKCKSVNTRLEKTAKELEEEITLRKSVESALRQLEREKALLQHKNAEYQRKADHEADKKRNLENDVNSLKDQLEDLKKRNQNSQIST
Structure (SMILES),IC50 [1],IC50 [2]
"C[C@@H](NC(=O)N1CCN(c2ccncc2F)CC1)c1cccc2c1OC(F)(F)O2 [Example 36, (R)—N-(1-(2,2-Difluorobenzo[d][1,3]dioxol-4-yl)ethyl)-4-(3-fluoropyridin-4-yl)piperazine-1-carboxamide]",1440 nM,88.1 nM
"O=C(NCc1cccc2ncoc12)N1CCN(c2ccncc2F)CC1 [Example 39, N-(Benzo[d]oxazol-7-ylmethyl)-4-(3-fluoropyridin-4-yl)piperazine-1-carboxamide]",559 nM,54.6 nM
"COc1ccc(F)c(CNC(=O)N2CCN(c3ccncc3F)C[C@H]2C)c1 [Example 55, (R)—N-(2-Fluoro-5-methoxybenzyl)-4-(3-fluoropyridin-4-yl)-2-methylpiperazine-1-carboxamide]",602 nM,23.3 nM
"COc1ncccc1CNC(=O)N1CCN(c2ccncc2F)C[C@H]1C [Example 56, (R)-4-(3-Fluoropyridin-4-yl)-N-((2-methoxypyridin-3-yl)methyl)-2-methylpiperazine-1-carboxamide]",3050 nM,360 nM
"C[C@H](NC(=O)N1CCN(c2ccncc2F)C[C@H]1C)c1cccn2nccc12 [Example 62, (R)-4-(3-Fluoropyridin-4-yl)-2-methyl-N—((S)-1-(pyrazolo[1,5-a]pyridin-4-yl)ethyl)piperazine-1-carboxamide]",490 nM,108 nM
"Cc1cnc2cccc([C@H](C)NC(=O)N3CCN(c4ccncc4F)C[C@H]3C)n12 [Example 66, (R)-4-(3-Fluoropyridin-4-yl)-2-methyl-N—((S)-1-(3-methylimidazo[1,2-a]pyridin-5-yl)ethyl)piperazine-1-carboxamide]",1270 nM,297 nM
"C[C@@H]1CN(c2ccncc2F)CCN1C(=O)OCc1cccc2nccn12 [Example 73, Imidazo[1,2-a]pyridin-5-ylmethyl (R)-4-(3-fluoropyridin-4-yl)-2-methylpiperazine-1-carboxylate]",1420 nM,227 nM
"C[C@@H]1CN(c2ccncc2F)CCN1C(=O)NCc1cccc2c1OC(F)(F)O2 [Example 74, (R)—N-((2,2-Difluorobenzo[d][1,3]dioxol-4-yl)methyl)-4-(3-fluoropyridin-4-yl)-2-methylpiperazine-1-carboxamide Hemiformate]",978 nM,56.8 nM
"COc1cccc(CN2C[C@@H]3CN(c4ccncc4F)CCN3C2=O)c1 [Example 86, (S)-7-(3-Fluoropyridin-4-yl)-2-(3-methoxybenzyl)hexahydroimidazo[1,5-a]pyrazin-3(2H)-one]",≥ 5000 nM,3210 nM
"COc1cccc(CN2C[C@H]3CN(c4ccncc4F)CCN3C2=O)c1 [Example 87, (R)-7-(3-Fluoropyridin-4-yl)-2-(3-methoxybenzyl)hexahydroimidazo[1,5-a]pyrazin-3(2H)-one]",≥ 5000 nM,1490 nM
"COc1cccc(CN2CC[C@H]3CN(c4ccncc4F)CCN3C2=O)c1 [Example 88, (S)-2-(3-Fluoropyridin-4-yl)-7-(3-methoxybenzyl)octahydro-6H-pyrazino[1,2-c]pyrimidin-6-one]",3800 nM,362 nM
"COc1cccc(CN2CC[C@@H]3CN(c4ccncc4F)CCN3C2=O)c1 [Example 89, (R)-2-(3-Fluoropyridin-4-yl)-7-(3-methoxybenzyl)octahydro-6H-pyrazino[1,2-c]pyrimidin-6-one]",1150 nM,55.1 nM

# Compounds with a lower IC50 [1], results first:
IC50 [1],IC50 [2],Structure (SMILES)
7.5 nM,2.9 nM,"COc1cccc([C@@H](C)NC(=O)N2CCN(c3ccncc3F)C[C@H]2C)c1 [Example 43, (R)-4-(3-Fluoropyridin-4-yl)-N—((R)-1-(3-methoxyphenyl)ethyl)-2-methylpiperazine-1-carboxamide]"
295 nM,3.9 nM,"COc1cccc([C@@H](C)OC(=O)N2CCN(c3ccncc3F)C[C@H]2C)c1 [Example 46, (R)-1-(3-Methoxyphenyl)ethyl (R)-4-(3-fluoropyridin-4-yl)-2-methylpiperazine-1-carboxylate]"
184 nM,7.8 nM,"C[C@@H]1CN(c2ccncc2F)CCN1C(=O)N[C@H](C)c1ccc(F)cc1Cl [Example 50, (R)—N—((R)-1-(2-Chloro-4-fluorophenyl)ethyl)-4-(3-fluoropyridin-4-yl)-2-methylpiperazine-1-carboxamide]"
33.3 nM,3.5 nM,"COc1cc([C@@H](C)NC(=O)N2CCN(c3ccncc3F)C[C@H]2C)ccc1F [Example 53, (R)—N—((R)-1-(4-Fluoro-3-methoxyphenyl)ethyl)-4-(3-fluoropyridin-4-yl)-2-methylpiperazine-1-carboxamide]"
144 nM,13 nM,"C[C@@H]1CN(c2ccncc2F)CCN1C(=O)NCc1ccccc1Cl [Example 54, (R)—N-(2-Chlorobenzyl)-4-(3-fluoropyridin-4-yl)-2-methylpiperazine-1-carboxamide]"
39.1 nM,5 nM,"C[C@@H]1CN(c2ccncc2F)CCN1C(=O)N[C@H](C)c1cccc2c1CC(C)(C)O2 [Example 57, (R)—N—((R)-1-(2,2-Dimethyl-2,3-dihydrobenzofuran-4-yl)ethyl)-4-(3-fluoropyridin-4-yl)-2-methylpiperazine-1-carboxamide]"
13.8 nM,2.4 nM,"C[C@@H]1CN(c2ccncc2F)CCN1C(=O)N[C@H](C)c1cccn2nccc12 [Example 61, (R)-4-(3-Fluoropyridin-4-yl)-2-methyl-N—((R)-1-(pyrazolo[1,5-a]pyridin-4-yl)ethyl)piperazine-1-carboxamide]"
13.2 nM,3.4 nM,"Cc1cnc2cccc([C@@H](C)NC(=O)N3CCN(c4ccncc4F)C[C@H]3C)n12 [Example 65, (R)-4-(3-Fluoropyridin-4-yl)-2-methyl-N—((R)-1-(3-methylimidazo[1,2-a]pyridin-5-yl)ethyl)piperazine-1-carboxamide]"
243 nM,10.1 nM,"C[C@@H]1CN(c2ccncc2F)CCN1C(=O)N[C@H](C)c1cccc2c1OC(F)(F)O2 [Example 67, (R)—N—((R)-1-(2,2-Difluorobenzo[d][1,3]dioxol-4-yl)ethyl)-4-(3-fluoropyridin-4-yl)-2-methylpiperazine-1-carboxamide]"
17 nM,4.2 nM,"C[C@@H]1CN(c2ccncc2F)CCN1C(=O)N[C@H](C)c1cccc2c1OCO2 [Example 68, (R)—N—((R)-1-(Benzo[d][1,3]dioxol-4-yl)ethyl)-4-(3-fluoropyridin-4-yl)-2-methylpiperazine-1-carboxamide]"
1.6 nM,3.1 nM,"C[C@@H]1CN(c2ccncc2F)CCN1C(=O)N[C@H](C)c1cccc2nn(C)cc12 [Example 71, (R)-4-(3-Fluoropyridin-4-yl)-2-methyl-N—((R)-1-(2-methyl-2H-indazol-4-yl)ethyl)piperazine-1-carboxamide]"
191 nM,7.6 nM,"C[C@@H]1CN(c2ccncc2F)CCN1C(=O)NCc1cccc2c1OCCO2 [Example 77, (R)—N-((2,3-Dihydrobenzo[b][1,4]dioxin-5-yl)methyl)-4-(3-fluoropyridin-4-yl)-2-methylpiperazine-1-carboxamide formate]"
34.3 nM,4.2 nM,"C[C@@H]1CN(c2ccncc2F)CCN1C(=O)NCc1cccc2nn(C)cc12 [Example 78, (R)-4-(3-Fluoropyridin-4-yl)-2-methyl-N-((2-methyl-2H-indazol-4-yl)methyl)piperazine-1-carboxamide]"
8.1 nM,3.7 nM,"[2H]C([2H])([2H])Oc1cccc([C@H](NC(=O)N2CCN(c3ccncc3F)C[C@H]2C)C([2H])([2H])[2H])c1 [Example 81, (R)-4-(3-Fluoropyridin-4-yl)-N—((R)-1-(3-(methoxy-d3)phenyl)ethyl-2,2,2-d3)-2-methylpiperazine-1-carboxamide]"
9.1 nM,2.8 nM,"[2H]C([2H])([2H])Oc1cccc([C@@H](C)NC(=O)N2CCN(c3ccncc3F)C[C@H]2C)c1 [Example 82, (R)-4-(3-Fluoropyridin-4-yl)-N—((R)-1-(3-(methoxy-d3)phenyl)ethyl)-2-methylpiperazine-1-carboxamide]"
62 nM,4.8 nM,"COc1cccc([C@@H](C)NC(=O)N2CCN(c3ccncc3F)[C@@H](C)C2)c1 [Example 90, (S)-4-(3-Fluoropyridin-4-yl)-N—((R)-1-(3-methoxyphenyl)ethyl)-3-methylpiperazine-1-carboxamide]"

# From patent US12428413B2 (CHDI Foundation, Inc., priority 2019, dated 2025)
